PubChem BioAssay AID179 (DTP/NCI, 2004)
pEC50, pIC50: −log10 of the molar value. The source made the active and inactive calls.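 How the source made its calls: active means compounds giving half or more protection of infected cells from virus-caused growth loss, again on retest; inactive means the rest.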

System: CEM cells HIV-1 protection, formazan growth assay
Assay: NCI AIDS Antiviral Assay
Conditions: for pIC50: measured here: growth of uninfected CEM cells
Summary of the method: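 Human CEM cells, uninfected and HIV-1-infected, received five drug concentrations, and growth was read by soluble formazan assay. Compounds giving at least 50% protection were retested; reproducible 100% protection defined confirmed active.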

Structure (SMILES)	pEC50	pIC50	outcome
CCOC(=O)N(c1ccccc1)c1cc(=O)n2ccccc2n1	< 3.70	< 3.70	–
Cc1ccc(NC(=O)C(=O)C(C(=O)c2ccc3ccccc3c2)C2OC(=O)c3ccccc32)c(C)c1 (centres undefined)	< 4.12	4.67	–
O=C(O)CCCC[n+]1ccccc1	< 3.70	< 3.70	–
CC(=O)N=C(N=Nc1c(O)[nH]c2ccc(C)cc12)NC(C)=O	< 3.70	3.83	–
N#CNC(N)=NCc1ccccc1	3.81	3.69	–
O=C(O)c1nn(-c2ccccc2)c2c1CSc1ccccc1-2	< 3.70	3.80	–
Cc1ccc(/C=N/n2c(-c3ccc(C)cc3)n[nH]c2=O)cc1	< 3.70	< 3.70	–
COC(=O)C(Cc1c(C2Nc3ccccc3C2CC(NC(=O)CNC(C)=O)C(=O)OC)[nH]c2ccccc12)NC(=O)CNC(C)=O (centres undefined)	< 3.70	< 3.70	–
O=C1C=CC[C@H]2O[C@@H](COC(=O)Cc3ccccc3)C[C@H]2O1	< 3.70	4.46	–
CCCCCCCCCC(=O)CC(=O)c1c(O)cccc1O	< 4.63	< 4.63	–
CCc1cccc2c3c([nH]c12)C(CC)(CC(=O)O)OCC3 (centres undefined)	< 3.70	< 3.70	–
O=Nc1ccc(O)cc1O	< 3.70	3.83	–
CCCCCCCCCCCCCCCCOC[C@@H](COC1OC(CO)C(O)C(O)C1O)OCCCCCCCCCCCCCCCC (some centres undefined)	< 5.39	< 5.39	–
CCOC(=O)c1ccc(CS(=O)c2ccccc2)c([N+](=O)[O-])c1 (centres undefined)	< 3.69	5.46	–
Cc1oc2c(c1C)S(=O)(=O)C(C#N)C(c1ccccc1)N2 (centres undefined)	< 3.70	3.90	–
O=C1C(Br)=C(C2=CC(=P(c3ccccc3)(c3ccccc3)c3ccccc3)C=C2)C(=O)C(Br)=C1C1=CC(=P(c2ccccc2)(c2ccccc2)c2ccccc2)C=C1	< 4.30	< 4.30	–
NC(N)=NS(=O)(=O)c1ccc(NC(=O)c2cccc3c(NNc4ccc(C(=O)O)cc4)c4ccccc4nc23)cc1	< 3.70	4.47	–
O=C(/C=C/c1cccc(Br)c1)c1cccs1	–	–	inactive
CCCCCCc1cc2cc(-c3csc(-c4ccc(OC)cc4)n3)c(=O)oc2cc1O	< 3.70	5.04	–
COc1cc2c(c(OC)c1OC)C(=O)[C@@H]1[C@H]2N1C(N)=O	< 3.70	5.38	–
Cc1ccccc1NC(=O)CSc1nnc(-c2ccc(N=Cc3ccc(Cl)cc3)cc2)o1	< 3.41	5.25	–

Structure (SMILES)	pEC50	pIC50	outcome
COc1oc(C2C/C(=C/C(C)=C/C(C)=C/C(C)=C/c3ccc([N+](=O)[O-])cc3)CO2)c(C)c(=O)c1C (centres undefined)	< 4.41	5.00	–
C/C(=N\Nc1ccc2ccccc2n1)c1ccccn1	< 6.70	6.96	–
Cc1ccc(C)n1-c1ccccc1C1C=Cn2c(=O)oc3c(OC(C)C)c(OC(C)C)c(O)c1c32 (centres undefined)	< 3.70	4.79	–
Cc1cc(=O)oc2c1cc(OCC(=O)OCCN1CCCCC1)c1occ(C)c12	–	–	inactive
Cc1cn(C2C/C(=C\C#N)C(CO[Si](C)(C)C(C)(C)C)O2)c(=O)[nH]c1=O (centres undefined)	< 3.70	3.74	–
COCN1C(=O)[C@@H]2CCCN2C(=O)c2ccc([N+](=O)[O-])cc21	< 3.70	< 3.70	–
OCc1ccccc1C1CSCSC1	< 3.66	< 3.66	–
CC(C)(C)[Si](C)(C)OCC1OC(n2ccc(=O)[nH]c2=O)C(O[Si](C)(C)C(C)(C)C)/C1=C/C(N)=N\O (centres undefined)	< 3.70	5.04	–
CCCc1cc(=O)oc2c3c(c4c(c12)OC(C)(C)CC4)O[C@H](C)[C@H](C)C3=O	< 4.52	4.88	–
O=C1CCCC2CCCCN12 (centres undefined)	–	–	inactive
COc1ccc2c(c1)CCCN1Cc3ccccc3CC21 (centres undefined)	< 3.70	3.85	–
CCOC(=O)/C(=C\c1ccc(-c2ccccc2)cc1)C(C)=O	< 4.34	< 4.34	–
COc1ccc(C2S/C(=C\c3cccc([N+](=O)[O-])c3)C(=O)N2NC(=O)Cc2ccccc2)cc1 (centres undefined)	< 4.40	< 4.40	–
O=C(Cn1c(-c2ccccc2)cc2ccccc21)N1CCCC1	< 3.70	3.90	–
CCCCOC1NC(=O)NC(=O)C1(F)C(=O)OCC (centres undefined)	< 3.70	5.18	–
CCC12CCCNC1c1c(n(C)c3ccccc13)C(C(=O)OC)C2 (centres undefined)	< 4.43	4.46	–
C/C(=N/O)C1CC(C)([N+](=O)[O-])CCC1(C)O (centres undefined)	< 3.70	< 3.70	–
c1ccc(N=C(Nc2ccccc2)N2CCCCC2)cc1	< 3.70	4.11	–
CCCCC1CC(c2ccc(Cl)cc2)=NO1 (centres undefined)	< 4.66	< 4.66	–
O=C(Nc1ccccn1)NC1CCCCC1	< 3.70	3.71	–
